In patent publication US20260092036A1, “CRYSTALLINE SALTS OF A T-TYPE CALCIUM CHANNEL MODULATOR AND METHODS OF USE THEREOF” (Praxis Precision Medicines, Inc., priority 2023, published 2026):

Columns and labels:
Format in all cases: physicochemical
[1] = Water solubility of crystalline forms measured by HPLC
Experimental: Water solubility of Pattern D was measured by HPLC to determine how much the water solubility drops between Pattern C and Pattern D. To measure the solubility of Pattern D in H2O, ˜150 mg of Pattern D was slurried for 2 weeks at RT in 1 mL of H2O.

[2] = Dynamic Vapor Sorption (DVS) on Pattern D
[3] = Solid form stability on heating (XRPD, hot stage microscopy); settings: hydrochloride salt trihydrate
Experimental: Amorphous material was generated through ball milling in the experiments with the goal to obtain a new crystalline form. […] Pattern D was determined to be a channel trihydrate, the form identification was confirmed by Single Crystal XRD.
FIG. 5 is an overlay of XRPD spectra of Pattern D heated to 90° C. and cooled back to room temperature; Pattern D heated to 150° C. and cooled back to room temperature; as well as Pattern C and Pattern D reference spectra.
FIG. 6 is an image of Pattern D heated to different temperatures obtained using hot stage microscopy (HSM).

form conversion after slurry in H2O (XRPD) ([1]; 2-week slurry in H2O at RT): no form conversion | solubility at 2 weeks ([1]; water, thermodynamic from solid): 77.2 mg/mL | mass gained in DVS ([2]; at 80% RH): ~10.45% | water re-adsorbed after desolvation in DVS ([2]; by RH of 20%, after loss of moisture at RH close to 0): approximately 10.5% | form change post DVS (XRPD) ([2]; post DVS): no clear form change | form conversion on heating (XRPD) ([3]; heated to 90° C. and cooled back to room temperature): no form conversion | form on further heating (XRPD) ([3]; heated to 150° C. and cooled back to room temperature): turns amorphous
Compound: CC(C)(C)NC(=O)CN1CCC(CNC(=O)c2cc(F)cc(Cl)c2)CC1.Cl [Pattern D, N-((1-(2-(tert-butylamino)-2-oxoethyl)piperidin-4-yl)methyl)-3-chloro-5-fluorobenzamide hydrochloride salt trihydrate]
